From US10246456B2, “IRAK4 inhibiting agents” (BIOGEN MA INC., priority 2014, dated 2019) come the findings set out here.

This assay has as its target IRAK4 (Homo sapiens (Human), UniProt Q9NWZ3). Briefly: IRAK-4 AlphaScreen biochemical kinase assay. The conditions noted are these: 1 nM IRAK4, 1 mM ATP, 3.5 h at RT. Put shortly: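 AlphaScreen read-out: streptavidin beads bind the biotinylated peptide and protein A beads bind the anti-phosphothreonine antibody, so energy transfer reports phosphorylation of the peptide. The kinase is human IRAK-4.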
(Alpha assays give light when donor and acceptor beads are brought close together.)

Chain of IRAK4 (Q9NWZ3 whole entry, species assumed): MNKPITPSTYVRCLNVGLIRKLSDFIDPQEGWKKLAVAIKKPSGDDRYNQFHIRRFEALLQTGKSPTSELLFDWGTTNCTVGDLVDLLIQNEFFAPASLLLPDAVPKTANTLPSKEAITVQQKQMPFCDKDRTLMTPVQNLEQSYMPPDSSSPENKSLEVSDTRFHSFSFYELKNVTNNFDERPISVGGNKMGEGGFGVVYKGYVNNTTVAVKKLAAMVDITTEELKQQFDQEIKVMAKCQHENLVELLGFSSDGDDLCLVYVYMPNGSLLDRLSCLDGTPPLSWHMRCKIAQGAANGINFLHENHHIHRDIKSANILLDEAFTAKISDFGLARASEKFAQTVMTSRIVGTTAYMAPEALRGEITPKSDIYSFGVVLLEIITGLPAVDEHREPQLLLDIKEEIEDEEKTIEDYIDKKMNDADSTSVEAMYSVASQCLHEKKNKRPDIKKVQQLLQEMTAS

Broadly, the IC50 is the midpoint of a concentration-inhibition curve. Higher therefore signals weaker potency. `COCCOc1cc(-c2cccc([C@@H](N)CC(C)(F)F)n2)cc2c1cnn2-c1cccc(CO)n1` [Example 455, (S)-(6-(6-(6-(1-amino-3,3-difluorobutyl)pyridin-2-yl)-4-(2-methoxyethoxy)-1H-indazol-1-yl)pyridin-2-yl)methanol] registered an IC50 of less than 0.1 µM. Consider `C[C@H](N)c1cccc(-c2cc(OCCCO)c3cnn(-c4cccc(CO)n4)c3c2)n1` [Example 459, (S)-3-((6-(6-(1-aminoethyl)pyridin-2-yl)-1-(6-(hydroxymethyl)pyridin-2-yl)-1H-indazol-4-yl)oxy)propan-1-ol], for which the concentration for half-maximal inhibition (IC50) is less than 0.1 µM. Molecule `CCC[C@H](N)c1cccc(-c2cc(OCCCO)c3cnn(-c4cccc(CO)n4)c3c2)n1` [Example 460, (S)-3-((6-(6-(1-aminobutyl)pyridin-2-yl)-1-(6-(hydroxymethyl)pyridin-2-yl)-1H-indazol-4-yl)oxy)propan-1-ol] came in with an IC50 of less than 0.1 µM. The molecule `CC[C@H](N)c1cccc(-c2cc(OCCCO)c3cnn(-c4cccc(CO)n4)c3c2)n1` [Example 461, (S)-3-((6-(6-(1-aminopropyl)pyridin-2-yl)-1-(6-(hydroxymethyl)pyridin-2-yl)-1H-indazol-4-yl)oxy)propan-1-ol] gave a 50% inhibitory concentration (IC50) of less than 0.1 µM. For `CCC[C@H](N)c1cccc(-c2cc(C#CC(C)(C)O)c3cnn(-c4cccc(CO)n4)c3c2)n1` [Example 462, (S)-4-(6-(6-(1-aminobutyl)pyridin-2-yl)-1-(6-(hydroxymethyl)pyridin-2-yl)-1H-indazol-4-yl)-2-methylbut-3-yn-2-ol] the value was 1 to 10 µM; for `COCCOc1cc(-c2cccc(C3(N)COC3)n2)cc2c1cnn2-c1cccc(CO)n1` [Example 465, (6-(6-(6-(3-aminooxetan-3-yl)pyridin-2-yl)-4-(2-methoxyethoxy)-1H-indazol-1-yl)pyridin-2-yl)methanol], 0.1 to 1 µM. `COCCOc1cc(-c2cccc(C3(N)CCOC3)n2)cc2c1cnn2-c1cccc(CO)n1` (stereo not shown) [Example 466, (6-(6-(6-(3-aminotetrahydrofuran-3-yl)pyridin-2-yl)-4-(2-methoxyethoxy)-1H-indazol-1-yl)pyridin-2-yl)methanol] came in with an IC50 of less than 0.1 µM. `COCCOc1cc(-c2cccc(C3(N)CCC3)n2)cc2c1cnn2-c1cccc(CO)n1` [Example 467, (6-(6-(6-(1-aminocyclobutyl)pyridin-2-yl)-4-(2-methoxyethoxy)-1H-indazol-1-yl)pyridin-2-yl)methanol]: the IC50 is less than 0.1 µM. `COCCOc1cc(-c2cccc(C3(N)CCC3)n2)cc2c1cnn2-c1cncc(CO)n1` [Example 468, (6-(6-(6-(1-aminocyclobutyl)pyridin-2-yl)-4-(2-methoxyethoxy)-1H-indazol-1-yl)pyrazin-2-yl)methanol] came in with an IC50 of less than 0.1 µM. For `COCCOc1cc(-c2cccc(C3(N)CCCC3)n2)cc2c1cnn2-c1cccc(CO)n1` [Example 469, (6-(6-(6-(1-aminocyclopentyl)pyridin-2-yl)-4-(2-methoxyethoxy)-1H-indazol-1-yl)pyridin-2-yl)methanol] the value was less than 0.1 µM; for `CCC[C@H](N)c1cccc(-c2cc(OCCS(C)(=O)=O)c3cnn(-c4cccc(CO)n4)c3c2)n1` [Example 470, (S)-(6-(6-(6-(1-aminobutyl)pyridin-2-yl)-4-(2-(methylsulfonyl)ethoxy)-1H-indazol-1-yl)pyridin-2-yl)methanol], 0.1 to 1 µM.

For the molecule `CCC[C@H](N)c1cccc(-c2cc(OCC(C)(C)O)c3cnn(-c4cccc(CO)n4)c3c2)n1` [Example 471, (S)-1-((6-(6-(1-aminobutyl)pyridin-2-yl)-1-(6-(hydroxymethyl)pyridin-2-yl)-1H-indazol-4-yl)oxy)-2-methylpropan-2-ol], the 50% inhibitory concentration (IC50) is less than 0.1 µM.

For the molecule `C[C@H](N)c1cccc(-c2ccc3cnn(-c4cccc(C(=O)O)n4)c3c2)n1` [Example 472, 6-{6-[6-((S)-1-Amino-ethyl)-pyridin-2-yl]-indazol-1-yl}-pyridine-2-carboxylic acid], the IC50 was 1 to 10 µM. Molecule `CCC[C@H](N)c1cccc(-c2cc(C3CCCO3)c3cnn(-c4cccc(CO)n4)c3c2)n1` (stereo partly drawn) [Example 477, (6-(6-(6-((S)-1-aminobutyl)pyridin-2-yl)-4-(tetrahydrofuran-2-yl)-1H-indazol-1-yl)pyridin-2-yl)methanol] came in with an IC50 of less than 0.1 µM.

In turn, `CCC[C@H](N)c1cccc(-c2cc([C@H]3CC[C@@H](C)O3)c3cnn(-c4cccc(CO)n4)c3c2)n1` [Example 478, (6-(6-(6-((S)-1-aminobutyl)pyridin-2-yl)-4-((2R,5R)-5-methyltetrahydrofuran-2-yl)-1H-indazol-1-yl)pyridin-2-yl)methanol] displayed an IC50 of less than 0.1 µM. The molecule `CCC[C@H](N)c1cccc(-c2cc([C@@H]3CC[C@@H](C)O3)c3cnn(-c4cccc(CO)n4)c3c2)n1` [Example 479, (6-(6-(6-((S)-1-aminobutyl)pyridin-2-yl)-4-((2S,5R)-5-methyltetrahydrofuran-2-yl)-1H-indazol-1-yl)pyridin-2-yl)methanol] yielded a half-maximal inhibitory concentration (IC50) of less than 0.1 µM. As for `CCC[C@H](N)c1cccc(-c2cc(OCCOC)c3cnn(-c4cncc(CO)n4)c3c2)n1` [Example 480, (S)-(6-(6-(6-(1-aminobutyl)pyridin-2-yl)-4-(2-methoxyethoxy)-1H-indazol-1-yl)pyrazin-2-yl)methanol], the half-inhibitory concentration (IC50) was less than 0.1 µM. `COCCOc1cc(-c2cccc([C@H](C)N)n2)cc2c1cnn2-c1cncc(CO)n1` [Example 481, (S)-(6-(6-(6-(1-aminoethyl)pyridin-2-yl)-4-(2-methoxyethoxy)-1H-indazol-1-yl)pyrazin-2-yl)methanol] gave a half-inhibitory concentration (IC50) of less than 0.1 µM. Regarding `CC[C@H](N)c1cccc(-c2cc(OCCOC)c3cnn(-c4cncc(CO)n4)c3c2)n1` [Example 482, (S)-(6-(6-(6-(1-aminopropyl)pyridin-2-yl)-4-(2-methoxyethoxy)-1H-indazol-1-yl)pyrazin-2-yl)methanol], the 50% inhibitory concentration (IC50) was less than 0.1 µM. Regarding `COCCOc1cc(-c2cccc([C@@H](N)CCCO)n2)cc2c1cnn2-c1cccc(CO)n1` [Example 484, (S)-4-amino-4-(6-(1-(6-(hydroxymethyl)pyridin-2-yl)-4-(2-methoxyethoxy)-1H-indazol-6-yl)pyridin-2-yl)butan-1-ol], the 50% inhibitory concentration (IC50) is less than 0.1 µM. For `Cc1cccc(-n2ncc3ccc(-c4cccc(C(N)CC(F)(F)F)n4)cc32)n1` (stereo not shown) [Example 551, 3,3,3-trifluoro-1-(6-(1-(6-methylpyridin-2-yl)-1H-indazol-6-yl)pyridin-2-yl)propan-1-amine] the value was 0.1 to 1 µM.

In the case of `Cc1cccc(-n2ncc3c(-c4nnc(C)o4)cc(-c4cccc(C(C)N)n4)cc32)n1` (stereo not shown) [Example 557, 1-(6-(4-(5-methyl-1,3,4-oxadiazol-2-yl)-1-(6-methylpyridin-2-yl)-1H-indazol-6-yl)pyridin-2-yl)ethanamine], the IC50 was in the range of 0.1 to 1 µM. `Cc1cncc(-n2ncc3ccc(-c4cccc(C(C)N)n4)cc32)n1` (stereo not shown) [Example 559, 1-(6-(1-(6-methylpyrazin-2-yl)-1H-indazol-6-yl)pyridin-2-yl)ethanamine] showed an IC50 of 0.1 to 1 µM. The molecule `N#CC(N)c1cccc(-c2ccc3cnn(-c4cccc(CO)n4)c3c2)n1` (stereo not shown) [Example 560, 2-amino-2-(6-(1-(6-(hydroxymethyl)pyridin-2-yl)-1H-indazol-6-yl)pyridin-2-yl)acetonitrile] showed a concentration for half-maximal inhibition (IC50) of 1 to 10 µM.

On to `NC(=O)C(N)c1cccc(-c2ccc3cnn(-c4cccc(CO)n4)c3c2)n1` (stereo not shown) [Example 561, 2-amino-2-(6-(1-(6-(hydroxymethyl)pyridin-2-yl)-1H-indazol-6-yl)pyridin-2-yl)acetamide], for which the 50% inhibitory concentration (IC50) fell in the range of 0.1 to 1 µM. For `CC(N)c1cccc(-c2ccc3cnn(-c4ccnc(C#N)n4)c3c2)n1` (stereo not shown) [Example 562, 4-(6-(6-(1-aminoethyl)pyridin-2-yl)-1H-indazol-1-yl)pyrimidine-2-carbonitrile] the value was 1 to 10 µM; for `CC(N)c1cccc(-c2ccc3cnn(-c4cccc(CO)n4)c3c2)c1` (stereo not shown) [Example 563, (6-(6-(3-(1-aminoethyl)phenyl)-1H-indazol-1-yl)pyridin-2-yl)methanol], 0.1 to 1 µM. With `CC(N)c1ccc(F)c(-c2ccc3cnn(-c4cccc(CO)n4)c3c2)n1` (stereo not shown) [Example 564, (6-(6-(6-(1-aminoethyl)-3-fluoropyridin-2-yl)-1H-indazol-1-yl)pyridin-2-yl)methanol], the concentration for half-maximal inhibition (IC50) was 0.1 to 1 µM. For `C[C@H](N)c1cccc(-c2ccc3cnn(-c4nc(CO)ccc4F)c3c2)n1` [Example 565, (S)-(6-(6-(6-(1-aminoethyl)pyridin-2-yl)-1H-indazol-1-yl)-5-fluoropyridin-2-yl)methanol] the value was 0.1 to 1 µM; for `CCC[C@@H](c1cccc(-c2ccc3cnn(-c4cccc(CO)n4)c3c2)n1)N(C)C` [Example 566, (S)-(6-(6-(6-(1-(dimethylamino)butyl)pyridin-2-yl)-1H-indazol-1-yl)pyridin-2-yl)methanol], 0.1 to 1 µM. Molecule `CNC(=O)C(N)c1cccc(-c2ccc3cnn(-c4cccc(CO)n4)c3c2)n1` (stereo not shown) [Example 567, 2-amino-2-(6-(1-(6-(hydroxymethyl)pyridin-2-yl)-1H-indazol-6-yl)pyridin-2-yl)-N-methylacetamide] had an IC50 of 0.1 to 1 µM. On to `C[S+]([O-])CC(N)c1cccc(-c2ccc3cnn(-c4cccc(CO)n4)c3c2)n1` (stereo not shown) [Example 568, (6-(6-(6-(1-amino-2-(methylsulfinyl)ethyl)pyridin-2-yl)-1H-indazol-1-yl)pyridin-2-yl)methanol], for which the IC50 lay within 1 to 10 µM. For `CCC[C@H](N)c1cccc(-c2cc(C(C)OC)c3cnn(-c4cccc(CO)n4)c3c2)n1` (stereo partly drawn) [Example 569, (6-(6-(6-((S)-1-aminobutyl)pyridin-2-yl)-4-(1-methoxyethyl)-1H-indazol-1-yl)pyridin-2-yl)methanol] the value was less than 0.1 µM; for `CCC[C@H](N)c1cccc(-c2cc(Cl)c3cnn(-c4nccc(C(F)F)n4)c3c2)n1` [Example 570, (S)-1-(6-(4-chloro-1-(4-(difluoromethyl)pyrimidin-2-yl)-1H-indazol-6-yl)pyridin-2-yl)butan-1-amine], less than 0.1 µM.
